Results on 18 compounds are retold here after patent US20260070902A1, “SULFONYL DERIVATIVES AS CCR6 INHIBITORS” (Hoffmann-La Roche Inc., priority 2022, published 2026).

Assay [1] has as its target T1, human CCR6 (Homo sapiens, UniProt P51684).
T1 sequence (P51684 1-374): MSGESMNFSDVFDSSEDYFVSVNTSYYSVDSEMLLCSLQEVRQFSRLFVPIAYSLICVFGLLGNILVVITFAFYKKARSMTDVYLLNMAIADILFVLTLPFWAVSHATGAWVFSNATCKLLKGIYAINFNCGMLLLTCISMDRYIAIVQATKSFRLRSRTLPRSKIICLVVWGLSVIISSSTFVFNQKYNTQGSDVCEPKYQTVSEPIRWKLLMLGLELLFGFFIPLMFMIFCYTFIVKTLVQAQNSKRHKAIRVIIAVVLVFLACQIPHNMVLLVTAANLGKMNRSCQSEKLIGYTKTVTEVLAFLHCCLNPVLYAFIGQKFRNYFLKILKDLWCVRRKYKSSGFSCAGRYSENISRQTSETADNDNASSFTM
As to the kind of experiment: CHO-K1 CCR6 chemotaxis assay towards CCL20. The conditions noted are these: relative -Log IC50; CHO-K1 cells overexpressing human CCR6; migration towards 100 ng/ml CCL20; 4 h. It counts as cell-based. The text has this:
CHO-K1 CCR6 Chemotaxis Assay Towards CCL20
Cells overexpressing human CCR6 were used in the chemotaxis assay (DiscoverX, cAMP Hunter™ CHO-K1 CCR6 Gi Cell Line). Growth medium of these cells consisted of DMEM/F12, non-essential Amino acids (1×NEAA, Gibco 11140050), 10% FBS and 1× pen/strep (Gibco 15140). For the chemotaxis assay, Corning Transwell plates were used with a pore size of 8 m (Corning 351164). Cells were harvested using trypsin and diluted to 4*10^6 cells/ml in chemotaxis medium (DMEM, 0.25% BSA, pen/strep). Compounds were four-fold serially diluted in DMSO. Further dilutions were made in chemotaxis medium. Cells were incubated with test compounds for 30 min at 37° C. prior to initiation of the assay (2*10^6 cells/ml). Final DMSO concentration in the assay was 0.2%. Wells of the Transwell plates were filled with 200 μl chemotaxis medium containing 100 ng/ml CCL20 (R&D systems 360-MP). 50 μl of the cell/compound suspension was added to the inserts of the Transwell plates (100,000 cells/insert). The Transwell plates were placed in an incubator at 37° C., 5% CO2 for 4 h. After 4 h, the number of migrated cells was quantified using CellTiter Glo (Promega). Percentage inhibition values were calculated based on the low and high signal obtained with 0.2% DMSO in chemotaxis medium without and with CCL20, respectively. The relative −Log IC50 was determined with GraphPad Prism 9 using a four-parameter dose-response model.

Assay [2] has as its target T1, human CCR6. As to the kind of experiment: Human CCR6-CRE reporter assay. In kind it is cell-based. More on the design: The second construct contained the open reading frame of human CCR6 in the pUNO1 backbone; host or cells: 293FT cells. The conditions noted are these: relative -Log IC50; 293FT cells transfected with human CCR6 and CRE-luciferase reporter; 6 μM Forskolin, 6 nM CCL20; 5 h. Summed up: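 293FT cells transiently co-transfected with human CCR6 and a CRE-luc2P reporter, used 48 h later. Compounds incubated with cells in medium containing 6 μM Forskolin and 6 nM CCL20 (assay-medium levels), 0.1% DMSO final, 5 h at 37° C; luminescence read, relative −Log IC50 from four-parameter fit.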
(A reporter such as luciferase makes a cellular process visible.)

Broadly, the IC50 is the point on the concentration scale where inhibition reaches its midpoint. Turning to `Nc1cc(-c2ccc(S(=O)(=O)[C@H]3CC[C@H](Nc4ccc(S(F)(F)(F)(F)F)cc4)CC3)cc2)cn2ccnc12` [Example 159, 6-(4-{[trans-4-{[4-(pentafluoro-λ^6-sulfanyl)phenyl]amino}cyclohexyl]sulfonyl}phenyl)imidazo[1,2-a]pyridin-8-amine], the IC50 at human CCR6 [1] was 12.6 nM; against human CCR6 [2], 63.1 nM.
`O=C1Cc2cc(-c3ccc(S(=O)(=O)[C@H]4CC[C@H](Nc5ccc(S(F)(F)(F)(F)F)cc5)CC4)cc3)ccc2N1` [Example 14, 5-(4-{[trans-4-{[4-(pentafluoro-λ^6-sulfanyl)phenyl]Amino}cyclohexyl]sulfonyl}phenyl)-2,3-dihydro-1H-indol-2-one]: the IC50 was 1260 nM at human CCR6 [1] and 200 nM against human CCR6 [2].
As to `CC(C)c1nnc2ccc(-c3ccc(S(=O)(=O)N4CCC(Nc5ccc(S(F)(F)(F)(F)F)cc5)CC4)cc3)cn12` [Example 28, N-[4-(pentafluoro-λ^6-sulfanyl)phenyl]-1-{4-[3-(propan-2-yl)-[1,2,4]triazolo[4,3-a]pyridin-6-yl]benzenesulfonyl}piperidin-4-amine], the IC50 against human CCR6 [1] was 5.01 nM; against human CCR6 [2], 31.6 nM.
Regarding `O=C1NCCCn2cc(-c3ccc(S(=O)(=O)[C@H]4CC[C@H](Nc5ccc(S(F)(F)(F)(F)F)cc5)CC4)cc3)cc21` [Example 155, 8-(4-{[trans-4-{[4-(pentafluoro-λ^6-sulfanyl)phenyl]amino}cyclohexyl]sulfonyl}phenyl)-1H,2H,3H,4H,5H-pyrrolo[1,2-a][1,4]diazepin-1-one], the figures for the half-inhibitory concentration (IC50) against human CCR6 [1] and on human CCR6 [2] were 31.6 nM and 158 nM, respectively.
For `N=S(=O)(c1ccc(-c2cccc(C(N)=O)c2)cc1)[C@H]1CC[C@H](Nc2ccc(S(F)(F)(F)(F)F)cc2)CC1` (stereo partly drawn) [Example 99, 4′-{[trans-4-{[4-(pentafluoro-λ^6-sulfanyl)phenyl]Amino}cyclohexyl]sulfonimidoyl}-[1,1′-biphenyl]-3-carboxamide], the figures for the IC50 against human CCR6 [1] and at human CCR6 [2] were 501 nM and 200 nM, respectively.
Consider `O=C1NCCc2ccc(-c3ccc(S(=O)(=O)[C@H]4CC[C@H](Nc5ccc(S(F)(F)(F)(F)F)cc5)CC4)cc3)cc21` [Example 60, 7-(4-{[trans-4-{[4-(pentafluoro-λ^6-sulfanyl)phenyl]Amino}cyclohexyl]sulfonyl}phenyl)-1,2,3,4-tetrahydroisoquinolin-1-one], for which the IC50 against human CCR6 [1] is 7.94 nM; against human CCR6 [2], 158 nM.
For `O=C1NCCn2cc(-c3ccc(S(=O)(=O)[C@H]4CC[C@H](Nc5ccc(S(F)(F)(F)(F)F)cc5)CC4)cc3)cc21` [Example 156, 7-(4-{[trans-4-{[4-(pentafluoro-λ^6-sulfanyl)phenyl]amino}cyclohexyl]sulfonyl}phenyl)-1H,2H,3H,4H-pyrrolo[1,2-a]pyrazin-1-one] the same measures were 39.8 nM and 158 nM.
Regarding `N=S(=O)(c1ccc(-c2ccc(C(N)=O)cc2)cc1)[C@H]1CC[C@H](Nc2ccc(S(F)(F)(F)(F)F)cc2)CC1` (stereo partly drawn) [Example 96, 4′-{[trans-4-{[4-(pentafluoro-λ^6-sulfanyl)phenyl]Amino}cyclohexyl]sulfonimidoyl}-[1,1′-biphenyl]-4-carboxamide], the IC50 at human CCR6 [1] was 501 nM; at human CCR6 [2], 158 nM.
As for `O=C1NCc2cc(-c3ccc(S(=O)(=O)[C@H]4CC[C@H](Nc5ccc(S(F)(F)(F)(F)F)cc5)CC4)cc3)ccc21` [Example 58, 5-(4-{[trans-4-{[4-(pentafluoro-λ^6-sulfanyl)phenyl]Amino}cyclohexyl]sulfonyl}phenyl)-2,3-dihydro-1H-isoindol-1-one], the IC50 against human CCR6 [1] was 15.8 nM; against human CCR6 [2], 200 nM.
Turning to `CN(C)C(=O)c1ccc(-c2ccc(S(=N)(=O)[C@H]3CC[C@H](Nc4ccc(S(F)(F)(F)(F)F)cc4)CC3)cc2)cc1` (stereo partly drawn) [Example 92, N,N-dimethyl-4′-{[trans-4-{[4-(pentafluoro-λ^6-sulfanyl)phenyl]Amino}cyclohexyl]sulfonimidoyl}-[1,1′-biphenyl]-4-carboxamide], the IC50 on human CCR6 [1] is 1580 nM; against human CCR6 [2] it was 200 nM.
For `O=C1NCCc2sc(-c3ccc(S(=O)(=O)[C@H]4CC[C@H](Nc5ccc(S(F)(F)(F)(F)F)cc5)CC4)cc3)cc21` [Example 153, 2-(4-{[trans-4-{[4-(pentafluoro-λ^6-sulfanyl)phenyl]amino}cyclohexyl]sulfonyl}phenyl)-4H,5H,6H,7H-thieno[3,2-c]pyridin-4-one], the IC50 was 15.8 nM on human CCR6 [1] and 158 nM against human CCR6 [2].
In the case of `COCc1nnc2ccc(-c3ccc(S(=O)(=O)N4CCC(Nc5ccc(S(F)(F)(F)(F)F)cc5)CC4)cc3)cn12` [Example 30, 1-{4-[3-(methoxymethyl)-[1,2,4]triazolo[4,3-a]pyridin-6-yl]benzenesulfonyl}-N-[4-(pentafluoro-λ^6-sulfanyl)phenyl]piperidin-4-amine], the IC50 against human CCR6 [1] is 251 nM; against human CCR6 [2] it was 50.1 nM.
For `NC(=O)c1n[nH]c2ccc(-c3ccc(S(=O)(=O)[C@H]4CC[C@H](Nc5ccc(S(F)(F)(F)(F)F)cc5)CC4)cc3)cc12` [Example 37, 5-(4-{[trans-4-{[4-(pentafluoro-λ^6-sulfanyl)phenyl]Amino}cyclohexyl]sulfonyl}phenyl)-1H-indazole-3-carboxamide], the IC50 against human CCR6 [1] is 3.98 nM; at human CCR6 [2], 63.1 nM.
For the compound `NC(=O)c1nnc2ccc(-c3ccc(S(=O)(=O)[C@H]4CC[C@H](Nc5ccc(S(F)(F)(F)(F)F)cc5)CC4)cc3)cn12` [Example 39, 6-(4-{[trans-4-{[4-(pentafluoro-λ^6-sulfanyl)phenyl]Amino}cyclohexyl]sulfonyl}phenyl)-[1,2,4]triazolo[4,3-a]pyridine-3-carboxamide], the IC50 was 79.4 nM on human CCR6 [1] and 251 nM against human CCR6 [2].
In the case of `O=c1[nH]nc2ccc(-c3ccc(S(=O)(=O)[C@H]4CC[C@H](Nc5ccc(S(F)(F)(F)(F)F)cc5)CC4)cc3)cn12` [Example 66, 6-(4-{[trans-4-{[4-(pentafluoro-λ^6-sulfanyl)phenyl]Amino}cyclohexyl]sulfonyl}phenyl)-2H,3H-[1,2,4]triazolo[4,3-a]pyridin-3-one], the IC50 against human CCR6 [1] was 39.8 nM; on human CCR6 [2], 63.1 nM.
Consider `CNC(=O)c1ccc(-c2ccc(S(=N)(=O)[C@H]3CC[C@H](Nc4ccc(S(F)(F)(F)(F)F)cc4)CC3)cc2)cn1` (stereo partly drawn) [Example 101, N-methyl-5-(4-{[trans-4-{[4-(pentafluoro-λ^6-sulfanyl)phenyl]Amino}cyclohexyl]sulfonimidoyl}phenyl)pyridine-2-carboxamide], for which the IC50 is 794 nM against human CCR6 [1] and 316 nM at human CCR6 [2].
Take `Cc1cnc2ccc(-c3ccc(S(=O)(=O)N4CCC(Nc5ccc(S(F)(F)(F)(F)F)cc5)CC4)cn3)cn12` [Example 69, 1-[(6-{3-methylimidazo[1,2-a]pyridin-6-yl}pyridin-3-yl)sulfonyl]-N-[4-(pentafluoro-λ^6-sulfanyl)phenyl]piperidin-4-amine]: the IC50 against human CCR6 [1] and against human CCR6 [2] was 794 nM each time.
As for `N#Cc1cnc2ccc(-c3ccc(S(=O)(=O)N4CCC(Nc5ccc(S(F)(F)(F)(F)F)cc5)CC4)cn3)cn12` [Example 76, 6-{5-[(4-{[4-(pentafluoro-λ^6-sulfanyl)phenyl]Amino}piperidin-1-yl)sulfonyl]pyridin-2-yl}imidazo[1,2-a]pyridine-3-carbonitrile], the values for the IC50 against human CCR6 [1] and at human CCR6 [2] were 501 nM and 794 nM, respectively.
